pIC50: −log10 of the molar value.
Test system: 843782-103-R-J1-PDC complex spheroid viability
Test: Anticancer human tumor 843782-103-R-J1-PDC patient-derived lung adenocarcinoma cell line growth inhibition [RAS]
Conditions: for pIC50: curve of first compound; for viability, T/C: stronger effect = lower value
Source text: RAS pathway inhibitors in Combinations in Complex Spheroids
A high-throughput screen of multi-cell type tumor spheroids was designed to identify active combinations of RAS pathway inhibitors and targeted small molecules. Complex spheroids include a stromal component modeled by human endothelial cells (HUVEC) and fibroblasts modeled by human mesenchymal stem cells (MSCs). The concentration ranges selected for each drug and investigational agent were based upon clinically achievable concentrations if the clinical Cmax of the agent was known.
Compounds. The drugs and investigational agents: abemaciclib (NSC768073), cobimetinib (NSC768068), divarasib (GDC6063, NSC841802), docetaxel (NSC628503), GDC-1971 (RLY-1971, NSC841576), gemcitabine (NSC613327), inavolisib (NSC800729), ipatasertib (NSC767898), KB-0742 (NSC834161), MRTX-1133 (NSC836407), osimertinib (NSC779217), RMC-4630 (NSC839698), RMC-6236 (NSC851965), RMC-6291 (NSC852671), Ro-3306 (NSC812927), sapanisertib (NSC764658), SN-38 (NSC673596), staurosporine (NSC755774), SY5609 (NSC837396), and tovorafenib (DAY101, NSC766906), were obtained from the National Cancer Institute (NCI) Developmental Therapeutics Program Chemical Repository. The FDA-approved anticancer drug set is available from the NCI Developmental Therapeutics Program. […] The stock solutions were prepared in dimethyl sulfoxide (DMSO, Sigma-Aldrich, St. Louis, MO, cat. D2650) at 800-fold the tested concentration and stored at -70 degrees C prior to their use. All drugs and investigational agents were tested over a range starting from a high concentration at or near the clinical Cmax and decreasing in half-log increments. If the clinical Cmax for an agent had not been determined, the highest concentration tested was 10 microM.
Cell Culture. All cells were maintained in an incubator at 37 degrees C and 5% CO2 with 95% humidity. The PDC lines were cultured according to standard operating procedures established by the NCI PDMR. All PDCs were thawed and cultured in Matrigel-coated flasks prepared with a working solution of 1X Ham's F-12 nutrient mix, without supplementation (Invitrogen, Waltham, MA, cat. 11765054), 100 U/mL penicillin-streptomycin (Invitrogen, cat. 15140122), and 2.5% Matrigel (Corning Inc., Corning, NY, cat. 354248) for the first three passages. The 362531-283-R-J2-PDC and 782815-120-R-J1-PDC lines were cultured in 6C/Colon 1B media, which includes advanced DMEM/F-12 (Thermo Fisher Scientific, cat. 12634028), 10 mM HEPES (Thermo Fisher Scientific, cat. 15630080), 1X GlutaMAX supplement (Thermo Fisher Scientific, cat. 35050061), 0.1 mg/mL primocin (InvivoGen, San Diego, CA, cat. ant-pm-2), 10% defined fetal bovine serum, heat inactivated (HyClone Laboratories Inc., Logan, UT, cat. SH30070.03HI), 50% L-WRN conditioned media (ATCC, cat. CRL-3276), 1.25 mM N-Acetyl-L-cysteine (Sigma-Aldrich, cat. A9165), 10 mM nicotinamide (Sigma-Aldrich, cat. N0636), 1X B-27 supplement (Thermo Fisher Scientific, cat. 17504044), 1X N-2 supplement (Thermo Fisher Scientific, cat. 17502048), 50 ng/mL human EGF (Thermo Fisher Scientific, cat. PHG0311), and 10 microM Y-27632 dihydrochloride (Tocris Bioscience, cat. 1254). The K12877-001-R-J1-PDC line was cultured in 6I media, which includes all 6C/Colon 1B media plus 10 ng/mL human FGF-10 (PeproTech, cat. 100-26), 1 ng/mL human FGF-2 (PeproTech, cat. 100-18B), 1 µM prostaglandin E2 (Tocris Bioscience, cat. 2296), […] hydrocortisone (Sigma-Aldrich, cat. H4001), and […] bovine insulin (Sigma-Aldrich, cat. I6634). The K86415-001-R-J1-PDC line was cultured in 6D media, which includes all 6C/Colon 1B media components minus the L-WRN conditioned media. The 485176-168-R4-J1-PDC was cultured in PANC media, which includes all 6C/Colon 1B media plus 100 ng/mL human FGF-10 (PeproTech, cat. 100-26), 500 nM SB-431542 (Selleckchem, cat. S1067), and 10 nM gastrin (Tocris Bioscience, cat. 3006). […]
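Also: viability read after seven days of compound exposure.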

Q: Which results are given for `CC(C)NCC(C(=O)N1CCN(c2ncnc3c2C(C)CC3O)CC1)c1ccc(Cl)cc1` (configuration not stated) + C#Cc1c(F)ccc2cc(O)cc(-c3ncc4c(N5CC6CCC(C5)N6)nc(OCC56CCCN5CC(F)C6)nc4c3F)c12?
A: pIC50 (second compound 0.0316 µM): 5.73; pIC50 (second compound 0.1 µM): 5.76; pIC50 (second compound 0.316 µM): 5.81; pIC50 (second compound 1 µM): 6.03; pIC50 (second compound 3.16 µM): 6.41; pIC50 (second compound 10 µM): 6.80; viability, T/C (second compound 0.0316 µM, first compound 0.0316 µM): 99.3%; viability, T/C (second compound 0.0316 µM, first compound 0.1 µM): 99.2%; viability, T/C (second compound 0.0316 µM, first compound 0.316 µM): 90.4%; viability, T/C (second compound 0.0316 µM, first compound 1 µM): 71.6%; viability, T/C (second compound 0.0316 µM, first compound 3.16 µM): 32.1%; viability, T/C (second compound 0.0316 µM, first compound 10 µM): 13.8%; viability, T/C (second compound 0.1 µM, first compound 0.0316 µM): 106%; viability, T/C (second compound 0.1 µM, first compound 0.1 µM): 99.1%; viability, T/C (second compound 0.1 µM, first compound 0.316 µM): 94.3%; viability, T/C (second compound 0.1 µM, first compound 1 µM): 69.9%; viability, T/C (second compound 0.1 µM, first compound 3.16 µM): 28%; viability, T/C (second compound 0.1 µM, first compound 10 µM): 13.5%; viability, T/C (second compound 0.316 µM, first compound 0.0316 µM): 103%; viability, T/C (second compound 0.316 µM, first compound 0.1 µM): 95.1%; viability, T/C (second compound 0.316 µM, first compound 0.316 µM): 86.9%; viability, T/C (second compound 0.316 µM, first compound 1 µM): 69.2%; viability, T/C (second compound 0.316 µM, first compound 3.16 µM): 21.4%; viability, T/C (second compound 0.316 µM, first compound 10 µM): 13.7%; viability, T/C (second compound 1 µM, first compound 0.0316 µM): 100%; viability, T/C (second compound 1 µM, first compound 0.1 µM): 94.6%; viability, T/C (second compound 1 µM, first compound 0.316 µM): 79.2%; viability, T/C (second compound 1 µM, first compound 1 µM): 48%; viability, T/C (second compound 1 µM, first compound 3.16 µM): 21.2%; viability, T/C (second compound 1 µM, first compound 10 µM): 10.3%; viability, T/C (second compound 3.16 µM, first compound 0.0316 µM): 84.6%; viability, T/C (second compound 3.16 µM, first compound 0.1 µM): 75%; viability, T/C (second compound 3.16 µM, first compound 0.316 µM): 53.3%; viability, T/C (second compound 3.16 µM, first compound 1 µM): 31.8%; viability, T/C (second compound 3.16 µM, first compound 3.16 µM): 13%; viability, T/C (second compound 3.16 µM, first compound 10 µM): 7.27%; viability, T/C (second compound 10 µM, first compound 0.0316 µM): 62.8%; viability, T/C (second compound 10 µM, first compound 0.1 µM): 55%; viability, T/C (second compound 10 µM, first compound 0.316 µM): 42.3%; viability, T/C (second compound 10 µM, first compound 1 µM): 20%; viability, T/C (second compound 10 µM, first compound 3.16 µM): 10.1%; viability, T/C (second compound 10 µM, first compound 10 µM): 4.52%
